Data as given in patent US12048281B2, “Method for treating post-emergent rice” (BASF SE, priority 2009, dated 2024).

Columns and labels:
[1] = system: transgenic Indica1 rice callus, ACC gene containing I1781(Am)L and I2041(Am)N; experiment: Growth of transgenic Indica1 callus on selection media; type: cell-based, Oryza sativa; settings: construct I1781(Am)L
Experimental: (§1) Indica1 and Nipponbare rice callus transformation was carried out essentially as described in Hiei and Komari (2008) with the exception of media substitutions as specified (see attached media table for details). Callus was induced on R001M media for 4-8 weeks prior to use in transformation. Agrobacterium utilized was LBA4404(pSB1) (Ishida et al. 1996) transformed with RLM185 (L. Mankin, unpublished: contains DsRed and a mutant AHAS for selection), ACC gene containing I1781(Am)L, ACC gene containing I1781(Am)L and W2027C, ACC gene containing I1781(Am)L and I2041(Am)N, or ACC gene containing I1781(Am)A or wild type which also contains a mutant AHAS gene for selection. Agrobacterium grown for 1-3 days on solid media was suspended in M-LS-002 medium and the OD660 adjusted to approximately 0.1. Callus was immersed in the Agrobacterium solution for approximately 30 minutes. Liquid was removed, and then callus was moved to filter paper for co-culture on semi-solid rice cc media. Co-culture was for 3 days in the dark at 24° C. Filters containing rice callus were directly transferred to R001M media containing Timentin for 1-2 weeks for recovery and cultured in the dark at 30° C. Callus was subdivided onto fresh R001M media with Timentin and supplemented with 100 μM Imazethapyr, 10 μM Cycloxydim or 2.5 μM Tepraloxydim. After 3-4 weeks, callus was transferred to fresh selection media. Following another 3-4 weeks, growing callus was transferred to fresh media and allowed to grow prior to Taqman analysis. Taqman analysis was for the Nos terminator and was conducted to provide for a molecular confirmation of the transgenic nature of the selected calli. Growth of transgenic calli was measured with various selection agents by subculturing calli on media containing either 10 μM Cycloxydim or Haloxyfop, 2.5 μM Tepraloxydim or 100 μM Imazethapry. Calli size was measured from scanned images following initial subculture and then after approximately 1 month of growth.
(§2) As can be observed in Table 7, the double mutant constructs allowed for growth on both Cycloxydim and Tepraloxydim in addition to Haloxyfop. The levels utilized in these growth experiments are inhibitory for wild type material. Growth was measured as a % change in size following 1 month of culture on the selection media.

[2] = system: transgenic Indica1 rice callus, ACC gene containing I1781(Am)L and W2027(Am)C; experiment: as above; type: cell-based, Oryza sativa; settings: construct I1781(Am)L
Experimental: as §1, §2

[3] = system: ACCase-inhibitor tolerant rice plants; experiment: Field treatment of ACCase-inhibitor tolerant rice; type: in vivo, Oryza sativa; settings: 600 g/ha; data not shown
[4] = system: control plants (wild-type cultivars, red rice) and tissue culture escapes; experiment: Greenhouse track-sprayer test, herbicide injury rating; type: in vivo, Oryza sativa; settings: 400-1600 g ai/ha with 0.1% methylated seed oil; rated 1 and 2 weeks after treatment
Experimental: (§3) Selected mutants and escapes were transferred to small pots. Wild-type cultivars and 3 biovars of red rice were germinated from seed to serve as controls.
(§4) After ca. 3 weeks post-transplant. M0 regenerants were sprayed using a track sprayer with 400-1600 g ai/ha cycloxydim (BAS 517H) supplemented with 0.1% methylated seed oil. After the plants had adapted to greenhouse conditions, a subset were sprayed with 800 g ai/ha cycloxydim. Once sprayed, plants were kept on drought conditions for 24 hours before being watered and fertilized again. Sprayed plants were photographed and rated for herbicide injury at 1 (FIG. 3) and 2 weeks after treatment (FIG. 4). […] FIGS. 5-15 provide nucleic acid and/or amino acid sequences of acetyl-Coenzyme A carboxylase enzymes from various plants. FIG. 17 provides a graph showing results for mutant rice versus various ACCase inhibitors.

[5] = system: rice plants containing the I1,781(Am)L heterozygous mutation; type: in vivo, Oryza sativa; settings: 400-1600 g ai/ha with 0.1% methylated seed oil; rated 1 and 2 weeks after treatment
Experimental: as §3, §4

CCc1cnc(C2=NC(C)(C(C)C)C(=O)N2)c(C(=O)O)c1 (centres unmarked) [P100, Imazethapyr]
Growth, % change in size following 1 month of culture on the selection media ([1]; 100 μM in selection media): 634% | Growth, % change in size following 1 month of culture on the selection media ([2]; 100 μM in selection media): 739%

CC/C(=N\OC/C=C/Cl)C1=C(O)CC(C2CCOCC2)CC1=O (centres unmarked) [tepraloxydim]
Growth, % change in size following 1 month of culture on the selection media ([1]; 2.5 μM in selection media): 1360% | Growth, % change in size following 1 month of culture on the selection media ([2]; 2.5 μM in selection media): 1416%

CC(Oc1ccc(Oc2ncc(C(F)(F)F)cc2Cl)cc1)C(=O)O (centres unmarked) [haloxyfop]
Growth, % change in size following 1 month of culture on the selection media ([1]; 10 μM in selection media): 1613% | Growth, % change in size following 1 month of culture on the selection media ([2]; 10 μM in selection media): 1669%

CCCC(=NOCC)C1=C(O)CC(C2CCCSC2)CC1=O (centres unmarked) [cycloxydim]
herbicide tolerance in the field [3]: Herbicide tolerance phenotypes as described herein have also been exhibited | herbicide injury [4]: heavily damaged | herbicide injury [5]: No injury | Growth, % change in size following 1 month of culture on the selection media ([1]; 10 μM in selection media): 884% | Growth, % change in size following 1 month of culture on the selection media ([2]; 10 μM in selection media): 867%
